Patent US12077503B2, “Substituted cyclic amides and their use as herbicides” (FMC CORPORATION, priority 2015, dated 2024)

How the values were obtained:
Assay in all cases: Test A postemergence
Format in all cases: in vivo
corn (Zea mays) = details: Zea mays, post-emergence, 240 h, 125 g ai/ha, postemergence, visual injury rating after approximately 10 d; read-out: Corn plant response rating (0 to 100 scale, 0 no effect, 100 complete control)
In short: (§1)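 Seeds sprayed preemergence with a directed soil spray, or plants at 2 to 10 cm height and one- to two-leaf stage sprayed postemergence, with test chemicals in a non-phytotoxic solvent mixture containing surfactant, in loam soil–sand blend. Injury rated visually against untreated controls after about 10 d in greenhouse, 0 (no effect) to 100 (complete control).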

[1] = tested on: pigweed (Amaranthus retroflexus); details: Amaranthus retroflexus, post-emergence, 240 h, 125 g ai/ha, postemergence, visual injury rating after approximately 10 d; read-out: Pigweed plant response rating (0 to 100 scale, 0 no effect, 100 complete control)
In short: as §1

[2] = tested on: blackgrass (Alopecurus myosuroides); details: Alopecurus myosuroides, post-emergence, 240 h, 125 g ai/ha, postemergence, visual injury rating after approximately 10 d; read-out: Blackgrass plant response rating (0 to 100 scale, 0 no effect, 100 complete control)
In short: as §1

[3] = tested on: giant foxtail (Setaria faberii); details: Setaria faberi, post-emergence, 240 h, 125 g ai/ha, postemergence, visual injury rating after approximately 10 d; read-out: Foxtail, Giant plant response rating (0 to 100 scale, 0 no effect, 100 complete control)
In short: as §1

[4] = tested on: barnyardgrass (Echinochloa crus-galli); details: Echinochloa crus-galli, post-emergence, 240 h, 125 g ai/ha, postemergence, visual injury rating after approximately 10 d; read-out: Barnyardgrass plant response rating (0 to 100 scale, 0 no effect, 100 complete control)
In short: as §1

Structure (SMILES)	plant injury at 125 g/ha (corn (Zea mays)) [%]	pest or weed control at 125 g/ha [1] [%]	pest or weed control at 125 g/ha [2] [%]	pest or weed control at 125 g/ha [3] [%]	pest or weed control at 125 g/ha [4] [%]
Cc1c(F)ccc([C@H]2CN(C)C(=O)[C@@H]2C(=O)Nc2ccccc2S(C)(=O)=O)c1F [Compound 842]	20	30	30	90	90
CC(C)(C)c1ccc([C@H]2CNC(=O)[C@@H]2C(=O)Nc2cccc(F)c2F)cc1 [Compound 847]	0	0	0	0	0
COc1cc([C@H]2CN(C)C(=O)[C@@H]2C(=O)Nc2ccccc2SC)cc(C(F)(F)F)c1 [Compound 857]	40	30	30	70	70
COc1cc(C(F)(F)F)ccc1[C@H]1CN(C)C(=O)[C@@H]1C(=O)Nc1ccccc1F [Compound 858]	20	20	0	80	80
CSc1ccccc1NC(=O)[C@H]1C(=O)N(C)C[C@@H]1c1cccc(OC(F)(F)C(F)F)c1 [Compound 862]	20	60	0	60	30
Cc1c(F)cccc1NC(=O)[C@H]1C(=O)N(C)C[C@@H]1c1cc(F)c(F)c(F)c1 [Compound 867]	60	0	30	80	90
CN1C[C@H](c2cc(F)cc(F)c2)[C@@H](C(=O)Nc2ncc(C(F)(F)F)cc2F)C1=O [Compound 868]	0	0	0	0	20
CN1C[C@H](c2cc(F)cc(F)c2)[C@@H](C(=O)Nc2ccccc2[S@@+](C)[O-])C1=O [Compound 872]	30	30	20	80	90
CN1C[C@H](c2cccc(COC(F)F)c2)[C@@H](C(=O)Nc2ccccc2S(C)(=O)=O)C1=O [Compound 877]	0	0	0	70	60
COc1c(F)ccc([C@H]2CNC(=O)[C@@H]2C(=O)Nc2ccccc2F)c1Cl [Compound 881]	0	0	0	80	90
COc1c(F)ccc([C@H]2CNC(=O)[C@@H]2C(=O)Nc2cccc(F)c2F)c1Cl [Compound 882]	80	30	40	70	80
O=C1NC[C@H](c2ccc3c(c2)CCCO3)[C@H]1C(=O)Nc1ccccc1F [Compound 885]	0	0	0	40	70
COc1c(F)ccc([C@H]2CN(C)C(=O)[C@@H]2C(=O)Nc2cccc(F)c2F)c1Cl [Compound 893]	80	20	30	90	100
